Tests used:
C9-iPSNs = test: Glutamate-induced excitotoxicity assay in C9 iPSNs/iMNs; type: cell-based, human; conditions: 10 μM glutamate
Procedure: Glutamate toxicity contributes to the disease onset/progression in ALS due to the loss of glutamate transporter 1 (EAAT2). […] To evaluate the effect of PTPσ knockdown to the physiology of C9-iPSNs, glutamate-induced excitotoxicity assays were performed and the percentage of cell death (PI^+) was quantified after the treatment with or without PTPσ knockdown. […] Taken together, the evidence supports PTPσ knockdown as beneficial for homeostasis of endo-lysosomal system, neuronal function, and survival in the C9-iPSNs.
C9 patient iPSNs differentiation (iMNs differentiation). […]
Glutamate-induced excitotoxicity assay. […] Five pairs of age and gender-matched control and C9ORF72-ALS iPSNs were analyzed.
Confocal microscopy and image quantification. […] For GFP-2×FYVE florescence intensity quantification, at least 6 images were taken for each replica with more than 30 neurons. […] The fluorescence intensity of the region of interest was measured and then minus the background intensity. For the quantification of EEA1^+ and LAMP1^+ puncta, EEA1 or LAMP1 channel was merged with MAP2. The puncta within MAP2 region were counted and compared among groups. For the quantification in mouse brains, at least 6 serial sections were imaged to quantify the number of neurons, astrocyte, and microglia in mouse brains. […] At least 500 cells from each biological replicate will be counted for statistical comparison.

[1] = system: poly-PR expressing neurons; test: Cell survival assay, PR50 expressing i^3Neurons; type: cell-based, human
Procedure: (§1) Cell survival assay. I'Neurons were infected with lentivirus to transduce GR50, PR50, BFP or GFP expression in the cells on day 5, day 7, day 9 or day 11 depending on the experimental timeline. For inducible DPRs, the virus was added to neurons on differentiation day 6. The expression was initiated by adding Dox to the differentiation medium (induction day 1). To validate the effect of the drugs on neuron survival, DPR was transduced for 7 days. i^3Neurons were treated with 5 μM ASOs for 7 days or 2.5 μM ISP (Sigma, Cat. No. 5343390001) or 3.7 μM DJ001 (Sigma, Cat. No. SML2787) for 3 days before harvesting. To examine the effect of the drugs on other cellular phenotypes, DPR was transduced for 3 days. 2.5 μM ISP or 3.7 μM DJ001 was added to the culture medium on the same day, followed by FYVE reporter transduction 1 day later.
(§2) To measure cell survival, bright-field images were captured on day 14 using a Nikon TS-2 microscope. At least 4 images were taken at 10× object for each replica. At least 2 replicas were included for each batch. All experiments were performed at least twice. To examine dead neurons, PI (Thermo Fisher, Cat. No. P1304MP) dye was added to the culture medium 30 min before harvesting. Images of bright field and Cy3 channel were acquired, followed by quantifying the surviving neurons and PI^+ signals blindly.

[2] = system: poly-GR expressing neurons; test: Cell survival assay, GR50 expressing i^3Neurons; type: cell-based, human
Procedure: as §1, §2

PTPσ = conditions: DJ001; cited from earlier work
hematopoietic stem cell = conditions: in vitro and in the mouse model; cited from earlier work
[3] = system: poly-GR expressing neurons (EEA1^+ early endosome); test: EEA1 immunofluorescence staining in i^3Neurons; type: cell-based, human; conditions: DJ001 3.7 μM; 3-days GR50 i^3Neurons
Description: During early endosome formation, Rab5 recruits EEA1 to the early endosomal membrane via local PI3P, thus EEA1 expression is considered a secondary indicator of PI3P level. […] EEA1^+ endosome formation was increased upon knocking down PTPσ in poly-GR expressing neurons (FIGS. 2C-2D).
Cell survival assay. I'Neurons were infected with lentivirus to transduce GR50, PR50, BFP or GFP expression in the cells on day 5, day 7, day 9 or day 11 depending on the experimental timeline. For inducible DPRs, the virus was added to neurons on differentiation day 6. The expression was initiated by adding Dox to the differentiation medium (induction day 1). […]
Confocal microscopy and image quantification. […] For GFP-2×FYVE florescence intensity quantification, at least 6 images were taken for each replica with more than 30 neurons. […] The fluorescence intensity of the region of interest was measured and then minus the background intensity. For the quantification of EEA1^+ and LAMP1^+ puncta, EEA1 or LAMP1 channel was merged with MAP2. The puncta within MAP2 region were counted and compared among groups. For the quantification in mouse brains, at least 6 serial sections were imaged to quantify the number of neurons, astrocyte, and microglia in mouse brains. For glutamate-induced neurotoxicity assays, 5 images of PI staining will be taken at 20× for each well to quantify dead neurons. […]

PIKFYVE = conditions: YM-201636; cited from earlier work

Question: For N[C@@H](CCC(=O)O)C(=O)O [glutamate], which “PI^+ dead cells in control shRNA C9-iPSNs” value (C9-iPSNs) is on record?
Answer: Its value is “increased”.

Question: Which results are given for CC(C)(O)CNc1ncc(-c2ccnc(Nc3ccnc(Cl)c3)n2)c(CC2CC2)n1 [VPS34-IN1]?
Answer: rescue by PTPσ knockdown, PR50 neurons ([1]; VPS34 inhibitor, PTPσ knockdown PR50 neurons): abolished; rescue effect of PTPσ knockdown on GR50 neuron survival ([2]; VPS34-IN1 0.5 μM, 2 days, PTPσ knockdown GR50 i^3Neurons): completely diminished

Question: Which “poly-PR expressing neuron survival” value ([1]; DJ001, PR50 i^3Neurons) does the source give for O=C(/C=C\Nc1cccc([N+](=O)[O-])c1)c1ccccc1 [DJ001, (Z)-3-((3-nitrophenyl)amino)-1-phenylprop-2-en-1-one] here?
Answer: The value was “improves”.

Question: And the “specificity of PTPσ inhibition” value (PTPσ)?
Answer: Its value is “highly specific inhibitor”.

Question: What about the “poly-GR expressing neuron survival” value ([2]; DJ001 3.7 μM, GR50 i^3Neurons) of the same compound?
Answer: Its value is “improves”.

Question: What about the “hematopoietic stem cell regeneration” value (hematopoietic stem cell) of the same compound?
Answer: Its value is “can promote hematopoietic stem cell regeneration”.

Question: What about the “formation of EEA1^+ early endosome” value [3] of the same compound?
Answer: Its value is “significantly increased”.

Question: For Nc1ccc(C(=O)Nc2cccc(-c3nc(N4CCOCC4)c4oc5ncccc5c4n3)c2)cn1 [YM-201636], which “rescue effect in poly-GR expressing neurons (survival)” value ([2]; YM-201636 0.5 μM, GR50 i^3Neurons) is on record?
Answer: The value was “robust rescue effect”.

Question: And the “PI3P levels via inhibition of PI3P to PI(3,5)P2 conversion” value (PIKFYVE)?
Answer: The value was “can boost PI3P levels”.
